Source: publication PMC8707861 (Tomography, 2021)
Where two headings read alike, the source gives them in different places.

How the values were obtained:
[1] = Paper electrophoresis analysis (charge of the molecule); type: physicochemical; settings: 0.01 M phosphate buffer pH 7.40, 200 V, 45 min
Description: Paper electrophoresis experiments were achieved on 20 × 1 cm chromatographic paper strips, Paper Chromedia GF 83 (Whatman), in the phosphate buffer (0.01 M, pH 7.40), using the midi horizontal electrophoresis unit (Sigma-Aldrich) device. For both radioconjugates, the experiments were carried out at 200 V (10 V cm^−1) for 45 min and then the distribution of radioactivity on the strips was determined using a Storage Phosphor System Cyclone Plus (Perkin-Elmer Life and Analytical Sciences, Downers Grove, IL, USA).

S. aureus ATCC 25,923 = assay: In vitro binding of radioconjugate to bacteria; type: cell-based; settings: Staphylococcus aureus, 37 °C
Description: (§1) Bacteria were cultured on Columbia Agar supplemented with 5% sheep blood (Graso Biotech, Starogard Gdański, Poland) at 37 °C in an aerobic atmosphere for 24 h. After incubation, a bacterial suspension with the turbidity 3 according to the McFarland standards (cell density approximately 9 × 10^8 CFU/mL) was prepared in PBS. […] The mixtures of bacteria and the radioconjugate were incubated in separated tubes for different time intervals at 37 °C without shaking. […] The supernatant was removed to a new tube, and the bacterial pellet was resuspended in 1 mL of PBS, then the sample was again centrifuged at 7000 rpm for 5 min. After second centrifugation, the supernatant was removed to a new tube and the bacterial pellet was again resuspended in 1 mL of PBS. The radioactivity measurement was performed for all three fractions, two supernatants, and a final bacterial pellet suspension. Experiments for each incubation time were triplicate.

[2] = test system: P. aeruginosa ATCC 27,853; assay: In vitro binding of radioconjugate to bacteria; type: cell-based; settings: Pseudomonas aeruginosa, 37 °C
Description: as §1

[3] = n-octanol/PBS pH 7.40, triplicate
Description: The lipophilicity of the radioconjugates was characterised by the determination of the logarithm of distribution coefficient, logD, in the n-octanol/PBS (pH 7.40) system, which mimics the physiological conditions (Product Properties Test Guidelines OPPTS 830.7550, 1996). The 1 mL PBS solution of a given radioconjugate previously isolated from reaction mixture was introduced to a test tube containing 1 mL of n-octanol and vortexed for 1 min. After that, the test tube was centrifuged for 5 min at 5800 rpm to ensure complete separation of the layers. The activity of each layer was measured, using a well-type NaI(Tl) detector. […] The logD measurements of all radioconjugates were performed in triplicate.

[4] = Stability by incubation in 10 mM histidine solution (HPLC); type: physicochemical
Description: (§2) After different time intervals the content of the solutions was tested by HPLC method.

[5] = human serum, 37 °C
Description: In the case of stability studies in human serum (HS), the solution of isolated radioconjugate in PBS (0.1 mL) was added to 0.9 mL of the human serum and incubated at 37 °C. After time periods up to 4 h, 0.2 mL of the incubated serum mixture were withdrawn, mixed in an Eppendorf tube with 0.5 mL ethanol and vigorously shaken to precipitate proteins. After centrifuging (14,000 rpm for 5 min) the γ-radiation of both the supernatant and precipitate was measured using the well-type NaI(Tl) detector. To check whether the radioconjugate had not converted into other water-soluble radioactive species, aliquots of the supernatant were analysed by HPLC.

[6] = Stability by incubation in 10 mM cysteine solution (HPLC); type: physicochemical
Description: as §2

[7] = period of four half-lives of the radionuclide

Charge of the molecule by electrophoresis [1]: Negative charge
Radioconjugate Uptake (S. aureus ATCC 25,923; binding time 30 min): 0.89 ± 0.11%
Radioconjugate Uptake (S. aureus ATCC 25,923; binding time 60 min): 1.1 ± 0.15%
Radioconjugate Uptake ([2]; binding time 30 min): 0.82 ± 0.16%
Radioconjugate Uptake ([2]; binding time 60 min): 1.29 ± 0.27%
logD [3]: −3.1 ± 0.1
% of intact radioconjugate after incubation in HIS ([4]; 10 mM HIS in PBS pH 7.4, 37 °C, after 4 h): ~100%
Stability in HIS challenging solution (in words) [4, 7]: completely stable
% of intact radioconjugate after incubation in HS ([5]; after 0.5 h): ~100%
% of intact radioconjugate after incubation in HS ([5]; after 1 h): ~100%
% of intact radioconjugate after incubation in HS ([5]; after 4 h): ~100%
Stability in HS (in words) ([5]; for 68Ga period of four half-lives): completely stable
% of intact radioconjugate after incubation in CYS ([6]; 10 mM CYS in PBS pH 7.4, 37 °C, after 4 h): ~100%
Stability in CYS challenging solution (in words) [6, 7]: completely stable
Compound: O=C(O)C[N+]12CC[N+]34CC[N+]5(CC(=O)N6CCN(c7cc8c(cc7F)c(=O)c(C(=O)O)cn8C7CC7)CC6)CC[N+]6(CC1)CC(=O)[O][68Ga-3]2365[O]C(=O)C4 (centres unmarked) [[^68Ga]Ga-DOTA-CIP]
